# Laboratory results published in publication PMC3920258, “Experimental Basis for the High Oral Toxicity of Dinophysistoxin 1: A Comparative Study of DSP” (Toxins, 2014).
# Where two headings read alike, the source gives them in different places.
# Assays:
# [1] = test system: occludin in Caco-2 cells; test: Confocal microscopy imaging of occludin; assay type: cell-based, human; details: 24 h; for occludin distribution / location: 100 nM toxin; for occludin distribution, positive controls: 0.005% Triton X-100, 100 mM NaBT, 1 μM STP
# Protocol: Tight-junction strands are composed of membrane integral proteins, occludin being the best-studied member. We evaluate the integrity of such tight-junctions in Caco-2 cells treated with 100 nM OA, DTX1 and DTX2 for 24 h by labeling occludin. […] (Figure 5C).
# Alexa Fluor® 488-labeled anti-occludin mouse monoclonal antibody from Invitrogen (Camarillo, CA, USA) was used for visualizing occludin, as previously described.
# Briefly, differentiated Caco-2 monolayers were treated with OA, DTX1, DTX2, vehicle and positive controls of apoptosis and cellular death: staurosporine (STP), sodium butyrate (NaBT) and Triton-X 100. Immediately after treatments, the cells were fixed and incubated with the anti-occludin antibody. Each experimental condition was performed in duplicate. Confocal imaging was then carried out with a 40× oil immersion objective of a Nikon Eclipse TE2000-E inverted microscope attached to the C1 laser confocal system and EZ-C1 V.2.20 software (Nikon Instruments Europe B.V., Amstelveen, Netherlands). An Argon laser was used to excite the Alexa Fluor 488 conjugated antibody.
# [2] = test system: mice; details: cited from earlier work; for minimum lethal dose: mice, i.p.
# [3] = test system: PP2A; details: cited from earlier work; for inhibition equivalency factor (IEF): PP2A
# [4] = test system: differentiated Caco-2 monolayers; test: Trans-epithelial electrical resistance (TEER) measurement; assay type: cell-based, human; details: for change in TEER values: 10, 50 and 100 nM, 3, 6, 12 and 24 h
# Protocol: We assessed tight junction formation stability through measurements of trans-epithelial electrical resistance (TEER). […] We studied the changes that OA, DTX1 and DTX2 induced in the TEER of the Caco-2 monolayer as a function of time. Differentiated Caco-2 monolayers were incubated with 10, 50 and 100 nM OA, DTX1 and DTX2. TEER was measured immediately before the toxins addition and after 3, 6, 12 and 24 h of incubation with them.
# Trans epithelial electric resistance (TEER) was measured across differentiated Caco-2 monolayers, as previously described. The measurements were performed before the treatment with OA, DTX1 and DTX2 (controls), and after each of the incubation times established: 3, 6, 12 and 24 h. Only inserts with TEER higher than 300 Ωcm^2 before the addition of the toxin were used for further testing.
# [5] = test system: differentiated Caco-2 monolayers; test: Caco-2 permeability assay with microsphere-based immunoassay quantification; assay type: in vitro ADME, human; details: for transport across the Caco-2 monolayer (apical to basolateral): 50 and 100 nM, 3, 6, 12 and 24 h
# Protocol: With the aim of evaluating the transport of OA, DTX1 and DTX2 through the cell monolayer, we performed the permeability assays as described in Section 4.7. Caco-2 cell monolayers were incubated with OA, DTX1 and DTX2 for 3, 6, 12 and 24 h. […] According to the results, almost all the OA and DTX2 remain in the apical side (Figure 6 A,D and C,F). […] Likewise, in the absence of a cell monolayer (shown as no cells in Figure 6), all the toxins easily flow over inserts.
# The permeability assay was carried out as previously described. During the assays, cell monolayer integrity was evaluated by measuring TEER at the start and end of the experiment. Once the incubation with the toxins (OA, DTX1 and DTX2) finished (after 3, 6, 12 or 24 h), the medium was collected from both the insert (donor compartment/apical side of the monolayer) and the well (receiver compartment/basolateral side of the monolayer) for toxin quantification purposes. Previously, we confirmed that the toxins easily flow over the naked inserts.
# OA, DTX1 and DTX2 samples taken from the inserts/donor compartments and wells/receptor compartments where quantified, as previously described by Fraga et al.. In order to consider the cross-reactivity of the analyzed derivatives of the okadaic acid, DTX-1 and DTX-2, calibration curves were prepared using calibration solutions with CRMs of DTX-1 and DTX-2. Therefore, the quantification of DTX-1 and DTX-2 samples collected from permeability assays were quantified against their respective calibration curves.
# [6] = test system: mice; details: cited from earlier work; for lethal oral dose: mice; for lethal oral dose / mice dead: oral
# [7] = test system: differentiated Caco-2 cells; test: AlamarBlue metabolic activity (viability) assay; assay type: cell-based, human; details: 1-1000 nM toxin, 6-72 h; highest 1000 nM for 72 h
# Protocol: Metabolic activity assay: Cytotoxic effects of OA, DTX1 and DTX2 (1, 10, 20, 40, 100, 200, 500 and 1000 nM) in differentiated Caco-2 cells have been evaluated in a time-dependent manner by the AlamarBlue metabolic activity assay. Incubation with 0.01% Triton X-100 has been used as a positive control of death. Data are shown in Figure 2 as the percent of fluorescence vs. control.
# The viability of the Caco-2 cells was measured by Alamar Blue assay, as previously described. Briefly, the Caco-2 cells were seeded onto 96-well plates at an initial concentration of 25,000 cells/mL and cultured until differentiation (21 days) with medium renewal every 2–3 days. Subsequently, cells were treated with increasing concentrations of OA, DTX1, DTX2 and Triton X-100 in the presence of AlamarBlue; then, fluorescence was measured at 6, 8, 10, 12, 24, 48 and 72 hours of incubation using a FL600 Microplate Fluorescence Reader from BioTek (Winooski, VT, USA) at an excitation wavelength of 530 nm and an emission wavelength of 590 nm. Control cells were considered as having 100% viability, and the results are expressed as the percentage of the fluorescence of treated cells versus the fluorescence of control ones.
# [8] = test system: differentiated Caco-2 monolayers; test: Annexin V-FITC apoptosis detection, confocal imaging; assay type: cell-based, human; details: 24 h; for annexin V-FITC fluorescence (apoptosis): 100 nM toxin; for annexin V-FITC fluorescence (apoptosis / cell death), positive controls: 1 μM STP, 100 mM NaBT, 0.005% Triton X-100
# Description: Cell membrane integrity assay: Some fluorescent methods allow a non-destructive evaluation of apoptosis by detecting changes in the structure of cell membranes. Annexin V has a high affinity for phosphatidylserine (PS), a phospholipid component located on the inner surface of the lipid bilayer of the cellular plasma membrane. During early apoptosis processes, this PS migrates to the outer portion, becomes exposed on the surface of the cell and can be detected by binding to annexin V labeled with a fluorescent dye. The annexin V assay was carried out in differentiated Caco-2 monolayers that were treated for 24 h with 100 nM of OA, DTX1, DTX2 or vehicle. Incubation with 0.005% Triton X-100 was used as a positive control of cell death and 1 μM staurosporine (STP) and 100 mM sodium butyrate (NaBT) as inductors of cell apoptosis.
# To visualize apoptosis by confocal microscopy in the toxin-treated Caco-2 monolayers, an apoptosis detection kit containing annexin V conjugated with FITC from Immunostep (Salamanca, Spain) was used.
# Caco-2 cells were seeded on glass coverslips at an initial concentration of 65 × 10^3 cells/mL and cultured for 21 days until differentiation with medium renewal each 2–3 days. On the 21st day, the cell medium was removed, and the monolayers were treated for 24 h with toxins: OA, DTX1, DTX2, vehicle and positive controls of apoptosis and cellular death (staurosporine (STP), sodium butyrate (NaBT) and Triton-X 100). Immediately after the 24 h of incubation, the medium was removed, and the cells were rinsed 3 times with PBS just before the addition of annexin V-FITC in a proportion of 1:100 diluted in the provided binding buffer. After 15 min of incubation in the dark at room temperature, the cells were rinsed again 3 times with PBS and fixed using paraformaldehyde 2% for 15 min at 4 °C. Finally, another 3 washes with PBS were required prior to mounting the coverslips over microscope glass slides with 10 μL of PBS/Glycerol (1:1) and sealing the edges with nail varnish. Confocal imaging was then carried out with a 40× oil immersion objective of a Nikon Eclipse TE2000-E inverted microscope attached to the C1 laser confocal system and EZ-C1 V.2.20 software (Nikon Instruments Europe B.V., Amstelveen, Netherlands). An argon laser was used to excite the annexin V-FITC conjugated protein (λ excitation = […], λ emission = […]).
# [9] = test system: PP1; details: cited from earlier work
# [10] = test system: Caco-2 monolayers; details: cited from earlier work
# [11] = test system: Caco-2 cells; design: method as in PMID 21093526; details: after 24 h; cited from earlier work
# [12] = test system: Caco-2 cells; design: method as in PMID 10806372; details: 1–2 μM; cited from earlier work
# [13] = test system: mice; details: oral administration to mice; cited from earlier work
# [14] = EFSA, based on mice i.p. toxicity, reference OA
molecule,measurement,setting,value
"C=C1[C@@H](O)[C@@H]2O[C@]3(CC[C@H](/C=C/[C@@H](C)[C@@H]4CC(C)=C[C@@]5(O[C@H](C[C@@](C)(O)C(=O)O)CC[C@H]5O)O4)O3)CC[C@H]2O[C@@H]1[C@@H](O)C[C@H](C)[C@H]1O[C@@]2(CC[C@H]1C)OCCC[C@H]2C [DTX1, dinophysistoxin-1]",occludin distribution / location,[1],fragmented and less uniform staining of occludin
same,toxicity equivalent factor (TEF),[2]; [14],1
same,minimum lethal dose,[2],160 µg/kg
same,inhibition equivalency factor (IEF),[3]; higher IC50 than OA,0.6–0.9
same,inhibition equivalency factor (IEF),[3]; lower IC50 than OA,1.6–2.4
same,"dissociation constant, fold lower compared to OA",[3]; catalytic subunit PP2A,1.6 fold
same,change in TEER value,"[4]; 50 nM, 24 h",significantly decreased
same,change in TEER value,"[4]; 100 nM, 12 and 24 h",decrease was much more noticeable
same,TEER values lowered to,"[4]; 100 nM, 12 h",50%
same,TEER values lowered to,"[4]; 100 nM, 24 h",70%
same,concentration disrupting the integrity of Caco-2 monolayers,[4]; as stated in abstract,above 50 nM
same,concentration disrupting the monolayer integrity,[4]; for 12 h and above,> 100 nM
same,amount of toxin in the basolateral side,"[5]; 100 nM, 24 h",increase in the amount of toxin in the basolateral side
same,initial amount recovered from the basolateral side,"[5]; 100 nM, 24 h",~50%
same,concentration at which toxin significantly crosses the intestinal epithelium,[5]; as stated in abstract,above 100 nM
same,oral toxicity compared with i.p. injection,[6],only slightly less toxic when administered orally than when given by i.p. injection
same,lethal oral dose,[6]; ref 58,300 μg/kg b.w.
same,fluorescence intensity (percent of viability vs. control),[7],did not show any decrease in fluorescence intensity
same,annexin V-FITC fluorescence (apoptosis),[8],Lack of fluorescence
same,"inhibition equivalency factor (IEF), IC50 OA / IC50 analogue",[9],0.4–0.9
"C=C1C(O)C2OC3(CCC(C=CC(C)C4CC(C)=CC5(OC(CC(C)(O)C(=O)O)CCC5O)O4)O3)CCC2OC1C(O)CC(C)C1CCCC2(OCCCC2C)O1 (stereo not shown) [DTX2, dinophysistoxin-2]",occludin distribution / location,[1],no modifications on the distribution of occludin
same,toxicity equivalent factor (TEF),[2]; [14],0.6
same,toxicity equivalent factor (TEF),[2]; acute intraperitoneal toxicity in mice,0.6
same,minimum lethal dose,[2],350 μg/kg b.w.
same,toxicity relative to OA,[3],equal toxicity
same,change in TEER values,[4],did not induce any change
same,transport across the Caco-2 monolayer (apical to basolateral),[5],unable to cross the Caco-2 monolayer
same,fluorescence intensity (percent of viability vs. control),[7],did not show any decrease in fluorescence intensity
same,annexin V-FITC fluorescence (apoptosis),[8],Lack of fluorescence
"CCCC(=O)[O-].[Na+] [NaBT, sodium butyrate]","occludin distribution, positive controls",[1],redistribution of occludin with adjacent diffuse intracellular staining and a granular appearance
same,"annexin V-FITC fluorescence (apoptosis / cell death), positive controls",[8],evident FITC green fluorescence zones
"C=C1[C@@H](O)[C@@H]2O[C@]3(CC[C@H](/C=C/[C@@H](C)[C@@H]4CC(C)=C[C@@]5(O[C@H](C[C@@](C)(O)C(=O)O)CC[C@H]5O)O4)O3)CC[C@H]2O[C@@H]1[C@@H](O)C[C@H](C)[C@H]1O[C@@]2(CCCCO2)CC[C@H]1C [OA, okadaic acid]",occludin distribution / location,[1],no modifications on the distribution of occludin
same,toxicity equivalent factor (TEF),[2]; [14],1
same,TEER changes,"[10]; 1 to 2 μM, 30 to 90 min",significant TEER reduction
same,concentration that decreased the TEER of Caco-2 monolayers,[10],≥ 600 nM
same,TEER changes,"[10]; differentiated Caco-2 monolayers, up to 200 nM for 24h",absence of TEER changes
same,change in TEER values,[4],did not induce any change
same,applied dose found in the basolateral side,[11],2%
same,applied dose trapped into Caco-2 cells,[11],2%–3
same,cell membrane damage and LDH release,[12],no cell membrane damage nor LHD release
same,transport across the Caco-2 monolayer (apical to basolateral),[5],unable to cross the Caco-2 monolayer
same,time to repair of damage to the intestinal ultrastructure,[13],≤ 24 h
same,lethal oral dose,[6]; ref 54,400 μg/kg b.w.
same,lethal oral dose,[6]; ref 55,880 μg/kg b.w.
same,mice dead,[6]; 1000 μg/kg b.w,0/5
same,mice dead,[6]; 2000 μg/kg b.w.,4/5
same,fluorescence intensity (percent of viability vs. control),[7],did not show any decrease in fluorescence intensity
same,annexin V-FITC fluorescence (apoptosis),[8],Lack of fluorescence
"CN[C@@H]1C[C@H]2O[C@@](C)([C@@H]1OC)n1c3ccccc3c3c4c(c5c6ccccc6n2c5c31)C(=O)NC4 [STP, staurosporine]","occludin distribution, positive controls",[1],redistribution of occludin with adjacent diffuse intracellular staining and a granular appearance
same,"annexin V-FITC fluorescence (apoptosis / cell death), positive controls",[8],evident FITC green fluorescence zones
Triton X-100,"occludin distribution, positive controls",[1],redistribution of occludin with adjacent diffuse intracellular staining and a granular appearance
same,"annexin V-FITC fluorescence (apoptosis / cell death), positive controls",[8],heavily damaged cell monolayer with noticeable loss of substrate adhesion and fluorescent green dots
